Data from patent publication US20230053493A1, “ONE STEP METHODS, KITS, AND SYSTEMS FOR THE MEASUREMENT OF CONCENTRATIONS OF UNBOUND BILIRUBIN IN BIOLOGICAL FLUIDS” (priority 2019, published 2023).
Counter-ions that a name gives are not always drawn. Blank lines part the entries; values can stand above or below the molecule they belong to.

Key:
Albumin [1] = target: T1, Albumin (Homo sapiens, UniProt P02768); test: Drug displacement of bilirubin from albumin / interference, Bf measured with one-step cartridges; type: in vitro ADME; conditions: percent increase of Bf for the 3x drug concentration relative to no drug; negative value = interference with the Bf sensor
T1 sequence (P02768 25-609): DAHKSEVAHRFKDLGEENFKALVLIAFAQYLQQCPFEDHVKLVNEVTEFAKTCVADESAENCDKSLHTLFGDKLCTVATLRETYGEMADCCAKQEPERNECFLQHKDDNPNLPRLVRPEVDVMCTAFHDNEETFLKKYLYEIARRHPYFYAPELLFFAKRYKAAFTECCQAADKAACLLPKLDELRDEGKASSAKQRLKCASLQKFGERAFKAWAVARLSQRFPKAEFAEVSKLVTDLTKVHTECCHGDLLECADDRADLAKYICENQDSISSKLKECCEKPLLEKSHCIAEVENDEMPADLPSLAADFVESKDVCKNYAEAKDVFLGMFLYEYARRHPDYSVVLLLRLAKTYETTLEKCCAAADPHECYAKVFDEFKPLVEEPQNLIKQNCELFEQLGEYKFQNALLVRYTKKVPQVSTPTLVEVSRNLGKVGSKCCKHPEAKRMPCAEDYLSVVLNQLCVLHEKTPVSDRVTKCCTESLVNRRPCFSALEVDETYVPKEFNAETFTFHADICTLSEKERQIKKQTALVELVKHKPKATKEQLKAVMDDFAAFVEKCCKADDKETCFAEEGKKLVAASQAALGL
Description: Premature infants who are at high risk for bilirubin neurotoxicity are of particular concern because NICU infants frequently receive medications. [Hsieh et al. Medication use in the neonatal intensive care unit. Am J Perinatol.

Albumin [2] = target: T1, Albumin; conditions: cefazolin 3.76 mM
[3] = Interference of conjugated bilirubin (ditaurobilirubin) with Bf measurement, UBCheck vs Arrows UA-2; set-up: species or system human
Description: The potential interference of conjugated bilirubin with the bilirubin probes is determined by measuring the effect of ditaurobilirubin on the ability of the UBCheck to measure Bf accurately. We also compared the UBCheck results with measurements using the Arrows UB analyzer UA-2 method. The measurements are performed by spiking neonatal serum with unconjugated bilirubin to yield a Bf of approximately 10 nM and then titrating the spiked sample with ditaurobilirubin up to 20 mg/dl (FIG. 7). At each step Bf is measured by UBCheck and Arrows and the direct (conjugated) bilirubin concentration is determined using a Sigma direct bilirubin kit. At zero ditaurobilirubin both UBCheck and Arrows yield Bf of 10 nM but the direct bilirubin measurement yields a non-zero value of about 0.5 mg/dl (FIG. 7). With increasing concentrations of ditaurobilirubin UBCheck is unchanged but Arrows increases starting at about 0.5 mg/dl of ditaurobilirubin and then increases rapidly until 4 mg/dl ditaurobilirubin where the Arrow's assay saturates at Bf ≥50 nM. In contrast, the UBCheck only begins to increase at 4 mg/dl ditaurobilirubin where its Bf increase to about 12 nM, a 20% increase from the initial 10 nM level, and only at 20 mg/dl ditaurobilirubin does Bf increase to 33 nM.

[4] = Effect of hemoglobin/hemolysate on UBCheck Bf measurement; set-up: species or system human; conditions: bilirubin spiked neonatal serum; hemoglobin concentrations at least as high as 4 g/l; cartridges with Hb blocking peptide
Description: After the Bf responder and non-responder probes are applied to the Ni-polystyrene beads, the peptide of Table 4 is added to the beads and is attached through double HIS tags to the bead's Ni-NTAs. The combined probes plus peptide beads are then spotted onto cartridges. The effect of whole blood hemolysate was tested by titrating bilirubin spiked neonatal serum with increasing hemoglobin concentrations.

adult human albumin = adult human albumin (Homo sapiens, UniProt P02768); conditions: high affinity site; read-out: equilibrium dissociation constant (Kd) of bilirubin for adult human albumin; cited from earlier work
Sequence of adult human albumin (P02768 25-609): as above

[5] = Calibration of free NIR probe/sensor by bilirubin titration (cuvette fluorometry, fit with equation 1); type: binding
Description: Embodiments provided herein are directed to methods of calibrating the bilirubin probes by mixing in an aqueous media the sensor with samples of bilirubin of increasing total bilirubin concentrations (BT), measuring the ratio of fluorescence intensities R of the sensor at each concentration, and determining the calibration parameters (Kd, Rm, and Ro) from the measured fluorescence by fitting with the equation (1), wherein R is the measured fluorescence ratio (Iλ1/Iλ2), where hi is the fluorescence intensity from the first fluorophore at wavelength λ1 and Iλ2 is the fluorescence intensity from the second fluorophore at wavelength λ2, both λ1 and λ2 have background subtracted, and Ro is the ratio in the absence of bilirubin. BT is the total bilirubin concentration and PT is the concentration of the sensor, r is the Iλ2/Iλ1 ratio of the bilirubin sensitive probe's fluorescence in the absence of the second fluorophore, Kd is the equilibrium dissociation constant of the sensor and Rm is the ratio R extrapolated to infinite BT. Equation (1) is used in some embodiments rather than equation (5) of U.S. Pat. No. 9,529,003 when Rm is >0.
Also described are methods for calibrating and using a bilirubin sensor described herein so that Bf concentrations can be determined in approximately 5 μl of undiluted blood samples in a single step. These small volume blood samples are applied to the disposable plastic microfluidic cartridges containing the dried bilirubin ratio sensor. The bilirubin sensor containing cartridges are preferably used for a single measurement and the calibration parameters (Kd, Rm, Ro) must be determined within a “lot” of identically manufactured cartridges. The calibration is performed by titrating a sufficient number of cartridges with aqueous samples of increasing well-defined Bf levels. Because plastics bind unbound bilirubin and because surface to volume ratio in the microfluidics channel is large, the calibration Bf samples must be highly buffered by complexes with albumin. The Bf concentrations of each complex are determined by measuring each by cuvette fluorometry using a calibrated sensor free in aqueous solutions. The free sensor is calibrated by titration with aqueous solutions of bilirubin where the concentrations of these unbound bilirubin solutions are determined by absorbance. The free probe's response (R values versus Bf concentrations) are used to determine the free sensor's calibration (Kd, Rm, Ro) (equation 1). The calibrated free sensor mixed with samples of each of the BR:HSA complexes is used to determine the Bf concentrations of each complexes by cuvette fluorometry using equation 2. These calibrated complexes are used to determine the binding parameters of the disposable cartridges including the equilibrium dissociation constant (Kd), the minimum fluorescence ratio (Rm) and the initial ratio (Ro) under defined conditions, of temperature, pH, and solution composition, suitable for blood samples. Binding isotherms are performed in aqueous buffer by measuring the change in fluorescence of the bilirubin sensor in response to increasing bilirubin concentrations (“titration data”). The set of fluorescence responses at each bilirubin concentration are fitted with an appropriate equation (“calibration equation (3)”) that correctly describes the fluorescence response as a function of the Bf concentration, the, specific spectroscopic characteristics, and the Kd.
All responder probes labeled with LICOR 700DX-maleimide and non-responder probes labeled with LICOR 800CW-maleimide probes in Tables 1 and 2, respectively have qualitatively similar dependencies on Bf. The probes differ mostly in protein expression, binding parameters (Kd, Ro and Rm) and stability. […] Although the non-responders are not characterized by bilirubin binding parameters, the emission spectrum of the 800CW-maleimide is sensitive to specific substitutions that can alter the LICOR 700DX-maleimide intensities. […]

[6] = Stability of non-responder probe 700/819 nm emission ratio in storage; type: physicochemical; conditions: at 1 and 6 days; absence of 700DX-maleimide
Description: All responder probes labeled with LICOR 700DX-maleimide and non-responder probes labeled with LICOR 800CW-maleimide probes in Tables 1 and 2, respectively have qualitatively similar dependencies on Bf. The probes differ mostly in protein expression, binding parameters (Kd, Ro and Rm) and stability. […] Although the non-responders are not characterized by bilirubin binding parameters, the emission spectrum of the 800CW-maleimide is sensitive to specific substitutions that can alter the LICOR 700DX-maleimide intensities. […] In some of these mutants the ratio of 700 to 819 nm increased from about 1% to 20% while in storage at 4° C. With suitable mutations this instability was eliminated.

[7] = Fluorescence intensities of Bf sensor with increasing total bilirubin (FIG. 1); type: binding; conditions: increasing BT; 675 nm excitation; probe 10 nM, free in aqueous buffer
Description: FIG. 1 depicts the intensities and ratios of intensities for a Bf sensor composed of the bilirubin responsive LICOR 700DX maleimide Mut:SEQ ID NO:2-76C probe (Table 1) and the bilirubin non-responder LICOR 800CW maleimide Mut:SEQ ID NO:1 B-73C probe (Table 2), both free in aqueous buffer, with increasing BT (total bilirubin) which at the concentrations used is primarily unbound bilirubin (Bf). Measurements of the 710 and 805 nm intensities at 675 nm excitation were performed at the probe concentrations of 1.5 nM and 10 nM, respectively in a Horiba Fluorolog 2.

Molecule: Cc1onc(-c2ccccc2)c1C(=O)N[C@@H]1C(=O)N2[C@@H]1SC(C)(C)[C@@H]2C(=O)O [Oxacillin]
Displacement or Interference (Albumin [1]): 616%

Molecule: ditaurobilirubin
Bf (assay saturates) ([3]; Arrows UA-2, samples diluted 52-fold, 4 mg/dl ditaurobilirubin): ≥ 50 nM
increase of Bf from the initial 10 nM level ([3]; UBCheck, 4 mg/dl ditaurobilirubin): 20%
Bf ([3]; UBCheck, 4 mg/dl ditaurobilirubin, neonatal serum spiked to Bf of approximately 10 nM): about 12 nM
Bf ([3]; UBCheck, 20 mg/dl ditaurobilirubin): 33 nM

Molecule: hemoglobin
Bf concentration relative to zero hemoglobin [4]: unaffected

Molecule: C=CC1=C(C)/C(=C/c2[nH]c(Cc3[nH]c(/C=C4\NC(=O)C(C)=C4C=C)c(C)c3CCC(=O)O)c(CCC(=O)O)c2C)NC1=O [bilirubin]
Kd (adult human albumin): ~20 nM

B1: 27C-C2XH11-700DXM: rIFABP mutein MGI-KR14-14R 18L 27C 38V 60R 73F 106L 115R 117D 131D-C2XH11 labeled with LICOR 700DX-maleimide (protein)
chain: MGIAFDGTWRVDRNENRERFLERMGINVVCRRLGAHDNLRVTITQEGNRFTVRESSNFRNIDRVFELGVDFAYSLFDGTELTGTWTMEGNRLVGRFRRVDNGRELIAVLEISGNELIRTDTYEGVEARRIFRRDRGAASHHHHHHSHRATPNTSPHHHHHHH
modifications: C2XH11 tag; LICOR 700DX-maleimide label; mutated bf sensitive probe
notes: rIFABP mutein MGI-KR14-14R 18L 27C 38V 60R 73F 106L 115R 117D 131D-C2XH11 labeled with LICOR 700DX-maleimide
Qs (Rm/Ro) ([5]; degree to which the probe is quenched by bilirubin binding, effect of fluorophore position): 0.21
Kd ([5]; effect of fluorophore (cysteine) position, responder probe labeled with 700DX-maleimide): 30 nM

B2: Mut:SEQ ID NO:1 B-73C: non-responder rat FABP mutein 20R 27A 29R 72A 73C 74F 100R 126W 131D-C2XH11 labeled with LICOR 800CW-maleimide (protein)
chain: AFDGTWKVDRNENYEKFMERMGINVVARRLGAHDNLKLTITQEGNKFTVKESSNFRNIDVVFELGVDFAYSACFGTELTGTWTMEGNKLVGKFKRVDNGRELIAVREISGNELIQTYTYEGVEAKWIFKKDRGAASHHHHHHSHRATPNTSPHHHHHHH
modifications: LICOR 800CW-maleimide label; nonresponder mutated probe
notes: non-responder rat FABP mutein 20R 27A 29R 72A 73C 74F 100R 126W 131D-C2XH11 labeled with LICOR 800CW-maleimide
700/819 ratio [6]: 1%
intensity change (cv) of LICOR 800CW maleimide measured at 805 nm [7]: 2.5%

Now from value to molecule:

Displacement or Interference (Albumin [1]): −98%
Molecule: CC(=O)S[C@@H]1CC2=CC(=O)CC[C@]2(C)[C@H]2CC[C@@]3(C)[C@@H](CC[C@@]34CCC(=O)O4)[C@H]12 [Spironolactone]

Displacement or Interference (Albumin [1]): 820%
Molecule: NS(=O)(=O)c1cc(C(=O)O)c(NCc2ccco2)cc1Cl [Furosemide]

Displacement or Interference (Albumin [1]): 157%
Molecule: CO/N=C(\C(=O)N[C@@H]1C(=O)N2C(C(=O)O)=C(COC(C)=O)CS[C@H]12)c1csc(N)n1 [Cefotaxime]

Displacement or Interference (Albumin [1]): 199%
Molecule: C[C@@H]1[C@H](O)[C@@H](C)/C=C/C=C/C=C/C=C/C=C/C=C/C=C/[C@H](O[C@@H]2O[C@H](C)[C@@H](O)[C@H](N)[C@@H]2O)C[C@@H]2O[C@](O)(C[C@@H](O)C[C@@H](O)[C@H](O)CC[C@@H](O)C[C@@H](O)CC(=O)O[C@H]1C)C[C@H](O)[C@H]2C(=O)O [Amphotericin B]

Bf larger in the UBCheck than Arrows (Albumin [2]): ~5 fold
Molecule: Cc1nnc(SCC2=C(C(=O)O)N3C(=O)[C@@H](NC(=O)Cn4cnnn4)[C@H]3SC2)s1 [Cefazolin]

Displacement or Interference (Albumin [1]): 524%
Molecule: Cc1nnc(SCC2=C(C(=O)O)N3C(=O)[C@@H](NC(=O)Cn4cnnn4)[C@H]3SC2)s1 [Cefazolin sodium salt]

Displacement or Interference (Albumin [1]): 76%
Molecule: CC(C)(O/N=C(\C(=O)N[C@@H]1C(=O)N2C(C(=O)[O-])=C(C[n+]3ccccc3)CS[C@H]12)c1csc(N)n1)C(=O)O [Ceftazidime sodium salt]

Displacement or Interference (Albumin [1]): 1626%
Molecule: NS(=O)(=O)c1cc2c(cc1Cl)N=CNS2(=O)=O [Chlorothiazide]
